Laboratory results: ChEMBL document CHEMBL1201862, “PubChem BioAssay data set” (2004)
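Where inhibition never reached the appropriate level, the endpoint shown equals the highest concentration tested. Otherwise, values were interpolated linearly from a five-concentration, 48-hour dose response in 96-well plates. Abbreviation: GI50, concentration required for 50% inhibition of growth.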 Calls of active or inactive are those of the source. No stated cut-off is given here; in the data, active = GI50 up to about 1.1 µM and inactive = higher.

What was measured:
Experiment in all cases: NCI anticancer screen, dose series, 48 h
UACC-257 = system: UACC-257
OVCAR-5 = system: OVCAR-5
HOP-62 = system: HOP-62
SNB-75 = system: SNB-75
HCT-116 = system: HCT-116
SK-MEL-5 = system: SK-MEL-5
SR = system: SR
TK-10 = system: TK-10
M14 = system: M14
COLO 205 = system: COLO 205
MOLT-4 = system: MOLT-4
KM12 = system: KM12
PC-3 = system: PC-3
HCT-15 = system: HCT-15
OVCAR-8 = system: OVCAR-8
SF-295 = system: SF-295
CAKI-1 = system: CAKI-1
SK-MEL-28 = system: SK-MEL-28
OVCAR-4 = system: OVCAR-4
SF-539 = system: SF-539
LOX IMVI = system: LOX IMVI
NCI-H522 = system: NCI-H522
CCRF-CEM = system: CCRF-CEM
RXF 393 = system: RXF 393
NCI-H226 = system: NCI-H226
MDA-MB-231 = system: MDA-MB-231
SN12C = system: SN12C
U-251 = system: U-251
SK-MEL-2 = system: SK-MEL-2
HOP-92 = system: HOP-92
SNB-19 = system: SNB-19
IGROV-1 = system: IGROV-1
SW-620 = system: SW-620
EKVX = system: EKVX
SK-OV-3 = system: SK-OV-3
NCI-H23 = system: NCI-H23
A549 = system: A549
UACC-62 = system: UACC-62
RPMI-8226 = system: RPMI-8226
K562 = system: K562
HL-60 = system: HL-60
UO-31 = system: UO-31
NCI/ADR-RES = system: NCI/ADR-RES
ACHN = system: ACHN
SF-268 = system: SF-268
T47D = system: T47D
NCI-H460 = system: NCI-H460
MDA-N = system: MDA-N
DU-145 = system: DU-145
786-0 = system: 786-0
HCC 2998 = system: HCC 2998
Hs-578T = system: Hs-578T
OVCAR-3 = system: OVCAR-3
MDA-MB-435 = system: MDA-MB-435
MCF7 = system: MCF7
HT-29 = system: HT-29
Malme-3M = system: Malme-3M
A498 = system: A498

Cc1nc2cccc(F)c2c(=O)n1-c1nnc(C2CC2)s1 was tested, and the GI50 (UACC-257) was > 10 µM (inactive), the GI50 (OVCAR-5) was > 10 µM (inactive) and the GI50 (HOP-62) was > 10 µM (inactive). For the same compound, the GI50 (SNB-75) was > 10 µM (inactive), the GI50 (HCT-116) was > 10 µM (inactive) and the GI50 (SK-MEL-5) was > 10 µM (inactive). For the same compound, the GI50 (SR) was > 10 µM (inactive), the GI50 (TK-10) was > 10 µM (inactive) and the GI50 (M14) was > 10 µM (inactive). For the same compound, the GI50 (COLO 205) was > 10 µM (inactive), the GI50 (MOLT-4) was > 10 µM (inactive) and the GI50 (KM12) was > 10 µM (inactive). For the same compound, the GI50 (PC-3) was > 10 µM (inactive), the GI50 (HCT-15) was > 10 µM and the GI50 (OVCAR-8) was > 10 µM (inactive). The GI50 (SF-295) was > 10 µM (inactive), the GI50 (CAKI-1) was > 10 µM (inactive) and the GI50 (SK-MEL-28) was > 10 µM (inactive). The GI50 (OVCAR-4) was > 10 µM (inactive), the GI50 (SF-539) was > 10 µM (inactive) and the GI50 (LOX IMVI) was > 10 µM (inactive). The GI50 (NCI-H522) was > 10 µM (inactive), the GI50 (CCRF-CEM) was > 10 µM (inactive) and the GI50 (RXF 393) was > 10 µM (inactive). For the same compound, the GI50 (NCI-H226) was > 10 µM (inactive), the GI50 (MDA-MB-231) was > 10 µM (inactive) and the GI50 (SN12C) was > 10 µM (inactive). The GI50 (U-251) was > 10 µM (inactive), the GI50 (SK-MEL-2) was > 10 µM (inactive) and the GI50 (HOP-92) was > 10 µM (inactive). For the same compound, the GI50 (SNB-19) was > 10 µM (inactive), the GI50 (IGROV-1) was > 10 µM (inactive) and the GI50 (SW-620) was > 10 µM (inactive). The GI50 (EKVX) was > 10 µM (inactive), the GI50 (SK-OV-3) was > 10 µM (inactive) and the GI50 (NCI-H23) was > 10 µM (inactive). The GI50 (A549) was > 10 µM (inactive), the GI50 (UACC-62) was > 10 µM (inactive) and the GI50 (RPMI-8226) was > 10 µM (inactive). For the same compound, the GI50 (K562) was > 10 µM (inactive), the GI50 (HL-60) was > 10 µM (inactive) and the GI50 (UO-31) was > 10 µM (inactive). For the same compound, the GI50 (NCI/ADR-RES) was > 10 µM (inactive), the GI50 (ACHN) was > 10 µM (inactive) and the GI50 (SF-268) was > 10 µM (inactive). The GI50 (T47D) was > 10 µM (inactive), the GI50 (NCI-H460) was > 10 µM (inactive) and the GI50 (MDA-N) was > 10 µM (inactive). For the same compound, the GI50 (DU-145) was > 10 µM (inactive), the GI50 (786-0) was > 10 µM (inactive) and the GI50 (HCC 2998) was > 10 µM (inactive). The GI50 (Hs-578T) was > 10 µM (inactive), the GI50 (OVCAR-3) was > 10 µM (inactive) and the GI50 (MDA-MB-435) was > 10 µM (inactive). For the same compound, the GI50 (MCF7) was > 10 µM (inactive) and the GI50 (HT-29) was > 10 µM (inactive).

In the case of CC1C(=O)CC[C@@]2(C)C(=O)CCCC12O (stereo partly drawn), the GI50 (UACC-257) is reported as > 100 µM (inactive), the GI50 (OVCAR-5) is reported as > 100 µM (inactive) and the GI50 (HOP-62) is reported as > 100 µM (inactive). The GI50 (HCT-116) was > 100 µM (inactive), the GI50 (SK-MEL-5) was > 100 µM (inactive) and the GI50 (SR) was > 100 µM (inactive). For the same compound, the GI50 (TK-10) was > 100 µM (inactive), the GI50 (M14) was > 100 µM (inactive) and the GI50 (COLO 205) was > 100 µM (inactive). For the same compound, the GI50 (MOLT-4) was > 100 µM (inactive), the GI50 (KM12) was > 100 µM (inactive) and the GI50 (Malme-3M) was > 100 µM (inactive). The GI50 (PC-3) was > 100 µM (inactive), the GI50 (HCT-15) was > 100 µM and the GI50 (SF-295) was > 100 µM (inactive). The GI50 (CAKI-1) was > 100 µM (inactive), the GI50 (SK-MEL-28) was > 100 µM (inactive) and the GI50 (OVCAR-4) was > 100 µM (inactive). The GI50 (SF-539) was > 100 µM (inactive), the GI50 (LOX IMVI) was > 100 µM (inactive) and the GI50 (NCI-H522) was > 100 µM (inactive). For the same compound, the GI50 (RXF 393) was > 100 µM (inactive), the GI50 (NCI-H226) was > 100 µM (inactive) and the GI50 (MDA-MB-231) was > 100 µM (inactive). For the same compound, the GI50 (SN12C) was > 100 µM (inactive), the GI50 (U-251) was > 100 µM (inactive) and the GI50 (SK-MEL-2) was > 100 µM (inactive). The GI50 (HOP-92) was > 100 µM (inactive), the GI50 (SNB-19) was > 100 µM (inactive) and the GI50 (IGROV-1) was > 100 µM (inactive). The GI50 (SW-620) was > 100 µM (inactive), the GI50 (EKVX) was > 100 µM (inactive) and the GI50 (SK-OV-3) was > 100 µM (inactive). For the same compound, the GI50 (NCI-H23) was > 100 µM (inactive), the GI50 (A549) was > 100 µM (inactive) and the GI50 (UACC-62) was > 100 µM (inactive). The GI50 (RPMI-8226) was > 100 µM (inactive), the GI50 (K562) was > 100 µM (inactive) and the GI50 (HL-60) was > 100 µM (inactive). For the same compound, the GI50 (UO-31) was > 100 µM (inactive), the GI50 (NCI/ADR-RES) was > 100 µM (inactive) and the GI50 (ACHN) was > 100 µM (inactive). For the same compound, the GI50 (SF-268) was > 100 µM (inactive), the GI50 (T47D) was > 100 µM (inactive) and the GI50 (NCI-H460) was > 100 µM (inactive). For the same compound, the GI50 (MDA-N) was > 100 µM (inactive), the GI50 (DU-145) was > 100 µM (inactive) and the GI50 (786-0) was > 100 µM (inactive). The GI50 (HCC 2998) was > 100 µM (inactive), the GI50 (A498) was > 100 µM (inactive) and the GI50 (Hs-578T) was > 100 µM (inactive). The GI50 (OVCAR-3) was > 100 µM (inactive), the GI50 (MDA-MB-435) was > 100 µM (inactive) and the GI50 (MCF7) was > 100 µM (inactive). For the same compound, the GI50 (HT-29) was > 100 µM (inactive).

With COc1ccc(Nc2nc3cc(N)cc(N)c3nc2-c2ccccc2)cc1 the GI50 (UACC-257) was 14.4 µM (inactive) and the GI50 (HT-29) was 20.3 µM (inactive).

COc1ccc(-c2coc3cc(OC)cc(O)c3c2=O)cc1 [4',7-DIMETHOXY-5-HYDROXYGENISTEIN] was tested, and the GI50 (UACC-257) was > 100 µM (inactive), the GI50 (OVCAR-5) was > 100 µM (inactive) and the GI50 (HOP-62) was 32.4 µM (inactive). The GI50 (SNB-75) was > 100 µM (inactive), the GI50 (HCT-116) was > 100 µM (inactive) and the GI50 (SK-MEL-5) was > 100 µM (inactive). The GI50 (SR) was > 100 µM (inactive), the GI50 (TK-10) was 29.6 µM (inactive) and the GI50 (M14) was 52.7 µM (inactive). For the same compound, the GI50 (COLO 205) was > 100 µM (inactive), the GI50 (KM12) was > 100 µM (inactive) and the GI50 (Malme-3M) was > 100 µM (inactive). For the same compound, the GI50 (PC-3) was > 100 µM (inactive), the GI50 (HCT-15) was > 100 µM and the GI50 (OVCAR-8) was > 100 µM (inactive). For the same compound, the GI50 (SF-295) was > 100 µM (inactive), the GI50 (CAKI-1) was > 100 µM (inactive) and the GI50 (SK-MEL-28) was > 100 µM (inactive). The GI50 (OVCAR-4) was > 100 µM (inactive), the GI50 (SF-539) was 78.3 µM (inactive) and the GI50 (LOX IMVI) was > 100 µM (inactive). For the same compound, the GI50 (NCI-H522) was > 100 µM (inactive), the GI50 (CCRF-CEM) was > 100 µM (inactive) and the GI50 (RXF 393) was 27.9 µM (inactive). For the same compound, the GI50 (NCI-H226) was > 100 µM (inactive), the GI50 (MDA-MB-231) was 31 µM (inactive) and the GI50 (SN12C) was > 100 µM (inactive). The GI50 (U-251) was 43.3 µM (inactive), the GI50 (HOP-92) was 7.41 µM (inactive) and the GI50 (SNB-19) was 31.4 µM (inactive). The GI50 (IGROV-1) was > 100 µM (inactive), the GI50 (SW-620) was > 100 µM (inactive) and the GI50 (EKVX) was > 100 µM (inactive). For the same compound, the GI50 (SK-OV-3) was > 100 µM (inactive), the GI50 (NCI-H23) was 30.8 µM (inactive) and the GI50 (A549) was > 100 µM (inactive). The GI50 (UACC-62) was > 100 µM (inactive), the GI50 (RPMI-8226) was > 100 µM (inactive) and the GI50 (K562) was > 100 µM (inactive). For the same compound, the GI50 (HL-60) was > 100 µM (inactive), the GI50 (NCI/ADR-RES) was > 100 µM (inactive) and the GI50 (ACHN) was 34.4 µM (inactive). The GI50 (SF-268) was 51.3 µM (inactive), the GI50 (T47D) was > 100 µM (inactive) and the GI50 (NCI-H460) was > 100 µM (inactive). The GI50 (MDA-N) was > 100 µM (inactive), the GI50 (DU-145) was > 100 µM (inactive) and the GI50 (786-0) was 25.8 µM (inactive). The GI50 (HCC 2998) was > 100 µM (inactive), the GI50 (A498) was 24.8 µM (inactive) and the GI50 (Hs-578T) was 31.1 µM (inactive). The GI50 (OVCAR-3) was > 100 µM (inactive), the GI50 (MDA-MB-435) was > 100 µM (inactive) and the GI50 (MCF7) was > 100 µM (inactive). For the same compound, the GI50 (HT-29) was > 100 µM (inactive).
